Reference: patent US20070219243A1, “Method for improving the pharmacokinetics of HIV integrase inhibitors” (priority 2005, published 2007)

What was measured:
[1] = Example 5: safety of zidovudine and Compound 1/r; type: in vivo, human
Text: (§1) Zidovudine is a NRTI used in HIV patients.
(§2) PK parameters were estimated using WinNonlin™ 5.0.1 (Pharsight Corporation, Mountain View, Calif., USA).

[2] = Example 5: drug-drug interaction of zidovudine and Compound 1/r
Text: as §1, §2

CYP3A (hepatic) = test: Example 3: IV midazolam probe for CYP3A activity at a range of RTV doses; conditions: human, plasma, iv, probe midazolam; for AUC(0-inf): AUCinf (mean); for clearance: CL (mean); for half-life: Half-life (mean)
Method: (§3) The effects of a range of RTV doses (20, 50, 100, and 200 mg once daily) on hepatic cytochrome P450 3A (CYP3A) activity were also evaluated using a CYP3A substrate.
(§4) For MDZ: AUC0-last, AUCinf, % AUCexp, Clast, Tlast, λ, T1/2, CL and Vz.
(§5) The population mean slope was estimated along with a corresponding 90% CI. This study was performed in compliance with the guidelines of Good Clinical Practices (GCPs).

[3] = system: hepatic cytochrome P450 3A (CYP3A) activity; test: as above
Method: as §3, §4, §5

[4] = Example 1: pharmacokinetics of Compound 1 alone and with RTV in healthy subjects; type: in vivo, human
Text: The study was an open-label, fixed-sequence, crossover, pharmacokinetic study with 12 subjects. The subjects were healthy males and non-pregnant, nonlactating females between 18 and 45 years of age, inclusive. The duration of the study was 20 days, with Period 1 of Days 1 to 10 and Period 2 of days 11 to 20. Follow-up contact was on day 27.

[5] = Example 3: pharmacokinetics of Compound 1 and RTV at a range of RTV doses; conditions: RTV in plasma, mean (CV %); for AUC / Cmax / half-life: both, human; for AUC: AUCtau
[6] = both, human, in vivo
[7] = plasma, oral, Compound 1 125 mg + 20 mg RTV QD
[8] = plasma, oral, Compound 1 125 mg + 50 mg RTV QD
[9] = plasma, oral, Compound 1 125 mg + 200 mg RTV QD

## Cc1cn([C@H]2C[C@H](N=[N+]=[N-])[C@@H](CO)O2)c(=O)[nH]c1=O [ZDV, zidovudine]
[1]; Compound 1/r 200/100 mg QD and ZDV 300 mg BID, alone and in combination
  Tolerability: generally well tolerated
[1]; zidovudine co-administered with Compound 1/r
  Safety of co-administration: safe and well tolerated
[2]; Compound 1/r 200/100 mg QD + ZDV 300 mg BID, with a meal, bounds 70% to 143%
  AUCtau, Cmax, Ctau (Compound 1 only) 90% CI of GMR (co-administration: alone): within predefined PK equivalence bounds
[2]; in vivo
  Pharmacokinetic drug-drug interaction: no clinically relevant pharmacokinetic drug-drug interaction

## Cc1ncc2n1-c1ccc(Cl)cc1C(c1ccccc1F)=NC2 [MDZ, midazolam]
CYP3A (hepatic); 1 mg, MDZ 1 mg IV alone, Day 1
  AUC(0-inf): 31 ng·h/mL
CYP3A (hepatic); 1 mg, MDZ 1 mg IV alone
  clearance: 7.45 mL/min/kg
  half-life: 3.97 h
CYP3A (hepatic); MDZ 1 mg IV, +20 mg RTV QD (with Compound 1 125 mg)
  AUC(0-inf): 101 ng·h/mL
CYP3A (hepatic); MDZ 1 mg IV, +50 mg RTV QD (with Compound 1 125 mg)
  AUC(0-inf): 145 ng·h/mL
CYP3A (hepatic); MDZ 1 mg IV, +100 mg RTV QD (with Compound 1 125 mg)
  AUC(0-inf): 219 ng·h/mL
CYP3A (hepatic); MDZ 1 mg IV, +200 mg RTV QD (with Compound 1 125 mg)
  AUC(0-inf): 146 ng·h/mL
CYP3A (hepatic); MDZ 1 mg IV, +20 mg RTV
  clearance: 2.38 mL/min/kg
  half-life: 7.83 h
CYP3A (hepatic); MDZ 1 mg IV, +50 mg RTV
  clearance: 1.5 mL/min/kg
  half-life: 14.4 h
CYP3A (hepatic); MDZ 1 mg IV, +100 mg RTV
  clearance: 1.2 mL/min/kg
  half-life: 22.4 h
CYP3A (hepatic); MDZ 1 mg IV, +200 mg RTV
  clearance: 1.45 mL/min/kg
  half-life: 15.2 h
[3]; MDZ 1 mg IV alone
  Clast (mean): 0.20 ng/mL
[3]; MDZ 1 mg IV, +20 mg RTV
  Clast (mean): 1.53 ng/mL
[3]; MDZ 1 mg IV, +50 mg RTV
  Clast (mean): 2.51 ng/mL
[3]; MDZ 1 mg IV, +100 mg RTV
  Clast (mean): 3.34 ng/mL
[3]; MDZ 1 mg IV, +200 mg RTV
  Clast (mean): 2.58 ng/mL

## CC(C)c1nc(CN(C)C(=O)N[C@H](C(=O)N[C@@H](Cc2ccccc2)C[C@H](O)[C@H](Cc2ccccc2)NC(=O)OCc2cncs2)C(C)C)cs1 [Ritonavir, (2S,3S,5S)-5-(N-(N-((N-Methyl-N-((2-isopropyl-4-thiazolyl)methyl)amino)-carbonyl)-L-valinyl)amino)-2-(N-((5-thiazolyl)methoxycarbonyl)amino)-1,6-diphenyl-3-hydroxyhexane, reference compound]
[4]; both sexes, human, plasma, oral, 100 mg, ritonavir in plasma, Day 11, single dose RTV 100 mg with Compound 1, median
  half-life: 5.1 h
[4]; both sexes, human, plasma, oral, 100 mg, read-out: AUC (AUCinf)
  AUC(0-inf): 4980 ng·h/mL
[4]; both sexes, human, plasma, oral, ritonavir in plasma, Day 20, RTV 100 mg + Compound 1 100 mg twice daily, mean, read-out: AUC (AUCtau)
  AUC: 9400 ng·h/mL
[4]; ritonavir in plasma, Day 11, single dose RTV 100 mg with Compound 1, mean
  Ctau: 219.8 ng/mL
[4]; ritonavir in plasma, Day 20, RTV 100 mg + Compound 1 100 mg twice daily, mean
  Ctau: 544.8 ng/mL
[5]; Compound 1 125 mg + 20 mg RTV QD
  Ctau: 0.718 (98.8) ng/ml
[5]; Compound 1 125 mg + 50 mg RTV QD
  Ctau: 11.6 (66.2) ng/ml
[5]; Compound 1 125 mg + 100 mg RTV QD
  Ctau: 53.8 (41.6) ng/ml
[5]; Compound 1 125 mg + 200 mg RTV QD
  Ctau: 78.5 (36.7) ng/ml
[5]; in vivo, Compound 1 125 mg + 100 mg RTV QD
  AUC: 6550 ng·h/mL
[5]; [7]
  AUC: 135 ng·h/mL
  Cmax: 19.5 ng/mL
  half-life: 4.74 h
[5]; [8]
  AUC: 1120 ng·h/mL
  Cmax: 130 ng/mL
  half-life: 6.54 h
[5]; [9]
  AUC: 16000 ng·h/mL
  Cmax: 2460 ng/mL
  half-life: 5.71 h
[5]; plasma, oral, Compound 1 125 mg + 100 mg RTV QD
  half-life: 6.34 h
[6]
  Dose proportionality of RTV exposures: RTV exposures not dose-proportional, very low exposures at 20 mg with BLQ concentrations (<0.5 ng/ml) by 16 hr in some subjects
